Laboratory results reported in US20260283972A1, “A COMPOUND FOR PREPARING LIPID NANOPARTICLES ENCAPSULATING AN AGENT, NANOPARTICLE COMPOSITION COMPRISING SAID COMPOUND AND RELATED METHODS THEREOF” (AGENCY FOR SCIENCE, TECHNOLOGY AND RESEARCH, priority 2023, published 2026).
“Also recorded” adds a separate entry of the source.

Assays:
Assay type in all cases: cell-based
[1] = tested on: Pseudomonas aeruginosa (ATCC No. 9027); assay: Antibacterial activity in vitro, broth microdilution MIC and MBC; conditions: for MIC P. aeruginosa: 24 h at 37° C.
Protocol: (§1) The MICs (minimum inhibitory concentrations) of the formulated LNPs containing polymyxin B and free polymyxin B against Gram-negative bacteria were determined using a broth microdilution method. Briefly, the bacteria were incubated overnight in MHB, and the bacteria suspension was diluted with MHB to achieve a concentration of […] (CFU)/mL (O.D. 600=0.100). This was followed by a 1000-fold dilution in MHB. The bacterial suspension was then seeded into a 96-well plate (80 μL per well) and mixed with 20 μL of MHB containing different polymyxin B-loaded LNPs or free polymyxin B concentrations. The 96-well plate was incubated for 24 h at 37° C. (bacteria). […] The MIC experiments were performed with four independent replicates. The MBCs (minimum bactericidal concentrations) were evaluated at the end of the MIC experiment.
(§2) The microbial suspension was then spread on LB agar plates, and the plates were incubated at 37° C. for 24 h to determine CFU on each agar plate. The experiments were performed in replicates of five. The MBC experiment was conducted with three independent replicates.

[2] = tested on: Escherichia coli (ATCC No. 25922); assay: as above; conditions: for MIC E. coli: 24 h at 37° C.
Protocol: as §1, §2

SH-SY5Y cells = assay: In vitro neurotoxicity, cell viability (AlamarBlue)
Protocol: HEK293 cells were grown in Dulbecco's […] (DMEM) supplemented with 10% FBS and 5% penicillin/streptomycin (Corning). SY-SY5Y cells were grown with a mixture of DMEM/Ham's F-12 with 2 mM L-glutamine (50:50 v/v) supplemented with 10% FBS and 5% penicillin/streptomycin. All cultures were grown in 37° C. incubators supplemented with 5% CO2 and were cultured according to suppliers' instructions. For all screening, cells were plated in 96-well plates at 10,000 cells per well in 100 μL of the appropriate media outlined above for the different cells. The formulated LNPs containing polymyxin B and free polymyxin B were then added to the wells at the desired polymyxin B concentration (e.g., 300, 150, 75, 37.5, 18.8, 9.4 μg mL^−1). The polymyxin B concentration of formulated LNPs was determined using the calibration plot of polymyxin B standards.

[3] = Table 6, experiment with 2nd formulation
[4] = Table 7, experiment with 1st formulation

## Polymyxin B [Polymyxin B (PB)]
[1]; [3]
  MBC P. aeruginosa: 2.50 µg/mL
  MIC P. aeruginosa: 1.25 µg/mL
[1]; [4]
  MBC P. aeruginosa: 5.0 µg/mL
  MIC P. aeruginosa: 5.0 µg/mL
[2]; [3]
  MBC E. coli: 5.0 µg/mL
  MIC E. coli: 1.25 µg/mL
[2]; [4]
  MBC E. coli: 5.0 µg/mL
  MIC E. coli: 5.0 µg/mL
SH-SY5Y cells; 300 μg mL^−1 of polymyxin B, 24 h incubation
  viability of SH-SY5Y cells: ~ 76%
SH-SY5Y cells; high concentration, 300 μg mL^−1, listed as free polymyxin B
  neurotoxicity / cell toxicity against SH-SY5Y: relatively pronounced cell toxicity; also recorded: Pronounced neurotoxicity was observed
